# Tests used:
# Assay in all cases: relative viability (nuclei count vs DMSO), 5 days (fraction); higher = more cells survive
# Pifithrin_alpha = compound: CC1=CC=C(C=C1)C(=O)CN2C3=C(CCCC3)SC2=N [Pifithrin_alpha]
# Procedure, shortened: (§1)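 Lung cancer cell lines in 1536-well plates were kept overnight at 37 °C, then pinned with five library-drug doses (not always all listed) spaced by √10 on vehicle-anchored plates. After 5 days without medium change, cells were fixed, permeabilised and Hoechst-stained in one step, imaged at 4×, and nuclei were counted with MetaXpress. Viability is treated-well nuclei divided by vehicle-well nuclei, taken as the median over plates. Plates passed only with control CV below 25% and at least one doubling.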
# Bemcentinib = compound: Nc1nc(Nc2ccc3c(c2)CC[C@@H](N2CCCC2)CC3)nn1-c1cc2c(nn1)-c1ccccc1CCC2 [Bemcentinib]
# Procedure, shortened: as §1
# Axitinib = compound: CNC(=O)c1ccccc1Sc1ccc2c(/C=C/c3ccccn3)n[nH]c2c1 [Axitinib]
# Procedure, shortened: as §1
Cell Line,relative viability (Pifithrin_alpha; 1 µM),relative viability (Pifithrin_alpha; 3.162 µM),relative viability (Pifithrin_alpha; 10 µM),relative viability (Pifithrin_alpha; 31.62 µM),relative viability (Pifithrin_alpha; 100 µM),relative viability (Bemcentinib; 0.04 µM),relative viability (Bemcentinib; 0.1265 µM),relative viability (Bemcentinib; 0.4 µM),relative viability (Bemcentinib; 1.265 µM),relative viability (Bemcentinib; 4 µM),relative viability (Axitinib; 0.005 µM),relative viability (Axitinib; 0.01581 µM),relative viability (Axitinib; 0.05 µM),relative viability (Axitinib; 0.1581 µM),relative viability (Axitinib; 0.5 µM)
H3255,0.856,0.93,0.945,0.71,0.795,0.804,0.994,0.993,0.951,0.964,0.985,0.851,0.912,0.894,0.896
SK-MES-1,0.893,0.927,0.901,0.726,0.815,1.03,1.09,1.07,1.11,1.11,1.03,0.998,1.01,0.976,1.06
COR-L 105,0.792,0.841,0.862,0.695,0.758,0.726,0.964,1.06,0.912,1.04,0.995,0.786,1.02,0.868,1.2
NCI-H838,0.856,0.807,0.854,0.735,0.643,0.946,1.08,1,1.02,1.03,0.992,0.944,1.01,0.933,1.03
NCI-H2170,0.989,1.04,0.875,0.948,0.962,1.09,1.09,0.991,0.999,0.899,1.1,0.975,1.01,0.974,1
EKVX,0.984,0.861,0.858,0.738,0.695,0.793,1.09,1.02,1.03,1.03,1.01,0.963,0.917,0.88,0.99
NCI-H1563,0.999,0.996,0.981,0.957,0.895,0.993,0.961,0.971,1.14,1.05,0.999,0.887,0.973,0.924,0.891
RERF-LC-KJ,0.873,0.935,0.858,0.81,0.795,1.07,1.04,1.11,1.07,1.06,1.07,0.991,1.01,0.984,1.04
LK-2,0.975,1.18,1.12,,1.25,0.969,1.26,1.25,1.06,1.01,0.976,0.746,0.816,0.823,0.822
NCI-H1666,1.01,0.909,0.837,0.795,0.776,0.902,1.34,1.03,1.06,0.998,1.06,0.965,0.965,1,0.977
LCLC-103H,0.996,0.974,0.959,0.848,0.887,0.992,1.07,0.96,1.04,0.994,0.946,0.973,1,0.959,0.867
NCI-H1755,0.919,0.964,0.882,0.841,1.05,1.06,1.05,1.02,1.05,1.08,1.02,1.01,1.05,0.992,0.997
NCI-H520,1.05,0.916,0.96,0.763,1.1,0.868,1.08,0.992,1.02,1.08,0.974,0.737,1.07,0.765,0.992
PC-14,0.866,1.02,0.949,0.625,0.842,1.02,1.15,1.1,1.02,1.02,1.05,0.808,1.09,0.951,1.13
NCI-H2405,0.733,0.962,0.904,0.876,0.921,0.944,1.03,1.01,1,1.08,1,1.04,1.14,0.973,0.95
NCI-H1395,,0.902,0.915,0.693,0.85,0.893,1.02,0.952,0.892,0.838,0.992,0.719,0.985,0.886,0.878
NCI-H596,1.12,0.886,0.958,0.973,0.996,0.883,1.03,0.924,0.908,1.07,1.04,0.956,1.03,1.06,0.947

# Reference: the supplement of paper PMC10307832
